# Reference: patent publication US8974830B2, “Particles and contrast agent including the same for optical imaging” (Canon Kabushiki Kaisha, priority 2012, dated 2015)
# Assay: Accumulation rate in popliteal lymph nodes after subcutaneous plantar administration
# Format: in vivo, mouse
# Conditions: 24 hours after subcutaneous plantar administration, 13 nmol dye
# Procedure: PNP10 prepared in EXAMPLE 10 was administered subcutaneously into the plantar surface of a mouse. Extirpation was performed 24 hours after administration. After homogenization, extraction was performed with an organic solvent to measure the accumulation rate in the popliteal lymph nodes. The amount administered was 13 nmol in terms of the amount of the dye. As a comparative example, an aqueous solution of ICG was also administered, and the accumulation rate was measured. The accumulation rate of PNP10 in the lymph nodes was about 80 times higher than that of ICG.
structure (smiles),measurement,value
"CC1(C)C(/C=C/C=C/C=C/C=C2\N(CCCCS(=O)(=O)O)c3ccc4ccccc4c3C2(C)C)=[N+](CCCCS(=O)(=O)[O-])c2ccc3ccccc3c21 [ICG, Indocyanine green]",Accumulation rate in lymph node (% ID),0.1 % ID
